Measured values reported in patent US20260199484A1, “PROTAC DEGRADERS OF MLLT1 AND/OR MLLT3” (DARK BLUE THERAPEUTICS LTD, priority 2024, published 2026).
pIC50: −log10 of the molar value.

Columns and labels:
MV4-11 cells = test: MV4-11 cellular proliferative assay, Assay Format B (CTG 2.0, 168 h); type: cell-based; conditions: Homo sapiens, Assay Method B, Table 7, read-out: MV4-11 Antiproliferation IC50
Procedure, shortened: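 Cells seeded at 600/well in IMDM + 10% FBS, incubated overnight, then exposed 168 h (7 days) at 37 °C to 10 concentrations, 3-fold dilutions from 1 uM or 100 nM top dose (0.3% DMSO final). Viability by CTG 2.0 luminescence as % of DMSO control; curves fitted by four-parameter logistic regression.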

MLLT1 = biological target: T1, MLLT1 (Homo sapiens, UniProt Q03111); test: MLLT1 DC50 and Dmax determination in MV4-11 cells (JESS, 4 h); type: cell-based; design: endogenous in cells; host or cells: MV4-11 (ATCC CRL-9591); conditions: MLLT1 degradation
T1 sequence (Q03111 1-559): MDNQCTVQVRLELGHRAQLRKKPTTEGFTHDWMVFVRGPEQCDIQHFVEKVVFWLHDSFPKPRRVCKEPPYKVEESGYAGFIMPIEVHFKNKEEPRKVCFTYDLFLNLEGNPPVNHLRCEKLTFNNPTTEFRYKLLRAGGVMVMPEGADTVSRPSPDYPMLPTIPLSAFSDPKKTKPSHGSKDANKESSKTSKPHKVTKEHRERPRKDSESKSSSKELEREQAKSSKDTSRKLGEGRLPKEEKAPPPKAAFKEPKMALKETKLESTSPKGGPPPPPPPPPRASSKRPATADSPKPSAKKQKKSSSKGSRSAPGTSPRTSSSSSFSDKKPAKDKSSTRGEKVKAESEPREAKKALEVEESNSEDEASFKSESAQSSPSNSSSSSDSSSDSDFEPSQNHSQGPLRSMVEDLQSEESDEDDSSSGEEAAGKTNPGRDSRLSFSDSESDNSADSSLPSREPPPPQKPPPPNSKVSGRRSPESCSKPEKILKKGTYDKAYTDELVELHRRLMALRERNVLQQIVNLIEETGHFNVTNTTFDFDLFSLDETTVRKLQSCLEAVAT
Description: MLLT1 degradation efficacy of compounds was tested in an automated chemiluminescent detection system (JESS, Cat #004-650). MV4-11 (#CRL-9591, ATCC) were seeded at a density of 1.2 million cells/well in a non-treated 6-well cell culture plate in 2.4 mL of complete medium (IMDM+10% FBS+1× Penicillin-Streptomycin). 10 mM DMSO stocks were prepared, and cells were treated with eight concentrations of test compounds, starting from 100 nM, 5-fold dilution, at a final DMSO concentration of 0.1% and incubated for 4 h at 37° C., 5% CO2. Post incubation, cells were centrifuged, washed with HBSS and lysed in 60 μL of RIPA buffer supplemented with Protease inhibitors (sc-24948; Santa Cruz). Protein estimation was done using BCA protein assay kit (23228; Pierce). 4 gg protein lysate (4 μL of 1 μg/μL lysate) was loaded into each well of the JESS cartridge (SM-W004; Bio-techne) and the JESS run was performed using 1:900 dilution of anti-human MLLT1 antibody (ABE2596; Merck) and 1:1200 dilution of anti-human GAPDH antibody (2118; Cell signaling technology) with anti-rabbit secondary detection module (DM-001; Bio-Techne). Post run, data was analysed using “Compass for SW” software for chemiluminescent detection. Peak fit was done using “dropped lines” method. Peak area for MLLT1 and GAPDH was used for the calculation of MLLT1 degradation with respect to DMSO control. Data was shown as “% degradation”. % Degradation was plotted against the respective doses (test compound concentration) and dose-response curve (DRC) was generated using four-parameter logistic equation (non-linear regression). Following parameters for each DRC was captured: DC50 (concentration in nM at which degradation is 50%, interpolated from standard curve and transformed to linear scale), Dmax (maximum % degradation observed). DC50 and Dmax data are captured in Table 7 for Example 1 and Example 110, which is a comparative example.

pIC50 (MV4-11 cells): < 6.00
DC50 (MLLT1): 41 nM
Dmax (MLLT1; maximum % degradation observed): 58%
SMILES: Cc1nn(CCCCCCCC#Cc2cccc3c2CN(C2CCC(=O)NC2=O)C3=O)c2cc(C(=O)Nc3cc4[nH]c(CN5CCCC5)cc4cn3)ccc12 (stereo not drawn) [Example 110, 1-(9-(2-(2,6-dioxopiperidin-3-yl)-1-oxoisoindolin-4-yl)non-8-yn-1-yl)-3-methyl-N-(2-(pyrrolidin-1-ylmethyl)-1H-pyrrolo[3,2-c]pyridin-6-yl)-1H-indazole-6-carboxamide]
